Columns and labels:
[1] = Body weight and tolerability in mice with TxR tumor xenografts
Method: For oral administration of PIP, in 1 ml of PIP dosing solution, 100 µl of its stock solution was solubilized with 500 µl of PEG 400 and 400 µl of physiological saline and the mixture was administrated orally to mice at the dose of 0.1 ml/10 g body weight. […] On Day 0, mice with PC3 cell xenografts were divided into two groups and mice with PC3-TxR cell xenografts were divided into four groups. Mice in each group were treated according to Supplementary Table 3 and the drug dosing lasted for 2 weeks with body weight and tumor sized measured twice per week. […] At the end of experiment, the mice were anesthetized followed by haemospasia to death by cardiac puncture.

PC3-TxR cells = test: Microarray gene expression profiling of PC3-TxR cells treated with PIP; type: cell-based, human; settings: 6 h
Method: The microarray technique was utilized to identify the potential mechanisms related to the chemosensitizing effect of PIP in PC3-TxR cells by determining the gene expression profile at the whole genome level. PC3-TxR cells were seeded at a density of 1 × 10^5 cells/ml in DMEM supplemented with 10% fetal bovine serum and cultured for 24 h. The cells were then treated with PIP at concentrations of 25 and 50 μg/ml (as low and high concentrations respectively) for 6 h. PIP was initially dissolved in DMSO and diluted to the target concentrations using DMEM. DMSO (0.5%) was used as the negative control (n = 2). Total RNA was extracted using RNeasy Mini Kit (QIAGEN, Valencia, CA, USA) according to the manufacturer’s protocol. The RNA was measured and the quality was checked using the RNA 6000 LabChip and Agilent 2100 BioAnalyzer. Only the high-quality RNA samples (e.g. RNA integrity number greater than 9.0) were used for subsequent microarray procedure performed at the Functional Genomics Core, Beckman Research Institute, City of Hope Comprehensive Cancer Center. Affymetrix Human Genome U133 Plus 2.0 arrays (Santa Clara, CA, USA) containing 54,675 probe sets detecting over 47,000 transcripts were used. The RNA samples were randomized and blinded prior to the microarray processing/analysis. The cRNA synthesis and labeling were carried out following the Affymetrix GeneChip 3′ IVT Express standard preparation protocol using […] of total RNA from each sample, along with polyA spike-in controls. The cRNA samples were converted to double-stranded cDNA. After second-strand synthesis, the cDNA was purified with the GeneChip sample cleanup module (Affymetrix, Santa Clara, CA). Biotinylated cRNAs were then synthesized by in vitro transcription. For each sample, […] of biotinylated cRNA along with hybridization spiked controls (bioB, bioC, bioD, and cre) was hybridized with Affymetrix Human Genome U133 Plus 2.0 array for 16 h at 45°C. Following hybridization, arrays were washed, stained, and then scanned with an Affymetrix GeneChipH 3000 7G scanner.
Statistical testing and additional analysis of the microarray data were conducted using Partek “Gene Expression” Workflow, i.e., Filtering, PCA, Sample Histogram, QC metrics, Gene Clustering, and ANOVA Analysis). The probe-set level expression data were summarized with Robust Multichip Average (RMA) by taking all 8 microarrays together. PCA and hierarchical clustering analysis (HCA) combined with heatmap was used to assess the quality of the microarray data by evaluating the reproducibility and variation of three replicates within each group and the differences among the three groups. The log2-transformed expression intensities of 54,675 probe sets from the 8 microarrays were used to calculate the Pearson Correlation Coefficient and Ward’s Minimum Variance method was used to calculate the distance between samples.
The differentially expressed genes (DEGs) between the treatment and control group were identified using cutoffs of t-test p value < 0.05 and fold change >2. The DEGs and probe sets were selected separately by comparing each treatment group with the control group. The dose dependent DEGs were than selected by overlapping the two DEGs sets. A functional annotation of these genes was carried out, using a gene ontology-based analysis of biological properties.

MCF-7/DOX = tested on: MCF-7/DOX; design: method as in PMID 21802927; settings: PIP at 50 μM; cited from earlier work
P-gp = P-gp (Homo sapiens, UniProt P08183); test: Intracellular DTX accumulation in PC3-TxR cells; type: cell-based; settings: 100 nM DTX; PIP at 50 μg/ml; 120 min; positive control 10 μg/ml of PSC833
Chain of P-gp (P08183 whole entry): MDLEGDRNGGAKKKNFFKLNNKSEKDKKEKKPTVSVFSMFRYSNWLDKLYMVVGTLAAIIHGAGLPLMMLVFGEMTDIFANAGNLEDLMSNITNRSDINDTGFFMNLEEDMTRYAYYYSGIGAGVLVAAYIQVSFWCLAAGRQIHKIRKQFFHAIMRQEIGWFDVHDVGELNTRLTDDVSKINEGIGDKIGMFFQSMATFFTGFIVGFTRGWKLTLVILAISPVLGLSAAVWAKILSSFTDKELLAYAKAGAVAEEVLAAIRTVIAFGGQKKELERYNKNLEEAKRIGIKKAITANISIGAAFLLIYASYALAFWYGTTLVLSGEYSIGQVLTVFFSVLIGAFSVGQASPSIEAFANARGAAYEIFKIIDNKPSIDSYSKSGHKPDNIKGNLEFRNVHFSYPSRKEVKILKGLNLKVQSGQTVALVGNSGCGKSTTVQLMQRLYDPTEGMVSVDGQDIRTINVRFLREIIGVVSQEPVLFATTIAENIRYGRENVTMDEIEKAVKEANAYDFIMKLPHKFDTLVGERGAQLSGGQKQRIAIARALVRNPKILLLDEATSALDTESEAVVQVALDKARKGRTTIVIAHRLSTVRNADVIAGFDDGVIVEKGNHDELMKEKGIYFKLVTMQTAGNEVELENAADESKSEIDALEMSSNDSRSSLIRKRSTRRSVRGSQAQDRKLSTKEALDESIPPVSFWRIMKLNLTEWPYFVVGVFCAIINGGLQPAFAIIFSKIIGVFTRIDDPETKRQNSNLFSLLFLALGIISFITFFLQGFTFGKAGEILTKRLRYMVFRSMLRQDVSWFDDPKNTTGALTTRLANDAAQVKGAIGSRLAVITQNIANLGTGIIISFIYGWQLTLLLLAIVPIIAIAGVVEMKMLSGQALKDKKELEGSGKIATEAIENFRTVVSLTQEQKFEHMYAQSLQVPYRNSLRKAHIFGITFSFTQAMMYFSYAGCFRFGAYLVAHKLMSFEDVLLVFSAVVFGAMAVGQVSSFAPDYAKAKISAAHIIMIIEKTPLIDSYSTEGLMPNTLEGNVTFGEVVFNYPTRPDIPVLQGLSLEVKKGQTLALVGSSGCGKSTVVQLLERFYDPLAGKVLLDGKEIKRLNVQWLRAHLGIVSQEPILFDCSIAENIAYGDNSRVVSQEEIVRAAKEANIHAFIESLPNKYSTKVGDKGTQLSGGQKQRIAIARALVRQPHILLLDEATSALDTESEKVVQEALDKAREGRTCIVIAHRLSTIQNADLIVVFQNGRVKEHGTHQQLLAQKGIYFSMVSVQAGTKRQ
Method: The PC3 and PC3-TxR cells were seeded in 6-well plate with density of 1×10^4 cells/ml and grew for 24 hours. […] The cells were then lysed and the protein level was measured using a BCA approach (Bio Rad Laboratory, Hercules, CA, USA). […] Briefly, to 0.1 ml of cell lysate, 0.3 ml of tert-butyl methyl ether was added and vortexed for 3 min. The upper organic layer was separated and evaporated to dryness. The residue was reconstituted using 0.1 ml of 80% acetonitrile and 10 μl was injected to an HPLC-MS/MS system for quantification. Paclitaxel was used as internal standard. The intracellular concentration was normalized per protein concentration. […] PSC833 (10 μg/ml) was used as positive control. […] The amount of DTX was compared among these treatment groups.

For `O=C(/C=C/C=C/c1ccc2c(c1)OCO2)N1CCCCC1` [PIP, 1-piperoyl piperidine], the “response of mice to PIP at higher dose” value ([1]; PIP at 100 mg/kg, mice implanted with taxane-resistant prostate cancer) was “severe excitation responses”, the percentage of bodyweights ([1]; TxR tumor xenograft mice, two weeks of treatment, control 96%) was 98% and the “expression change of Angiopoietin-like 4” value (PC3-TxR cells; High dose PIP) was 1.6. For the same compound, the “expression change of CYP1B1” value (PC3-TxR cells; High dose PIP) was −4.3, the “expression change of Fatty acid binding protein 4, adipocyte” value (PC3-TxR cells; High dose PIP) was 1.9 and the “expression change of Keratin associated protein 2–3” value (PC3-TxR cells; High dose PIP) was −4.7. For the same compound, the “expression change of Keratin associated protein 3–1” value (PC3-TxR cells; High dose PIP) was −2.7, the “expression change of Metastasis associated lung adenocarcinoma transcript 1 (non-protein coding)” value (PC3-TxR cells; High dose PIP) was 4.1 and the “expression change of O-linked N-acetylglucosamine (GlcNAc) transferase” value (PC3-TxR cells; High dose PIP) was 2.3. For the same compound, the “expression change of Sodium channel, non-voltage-gated 1, gamma subunit” value (PC3-TxR cells; High dose PIP) was 1.5, the “expression change of TCDD-inducible poly(ADP-ribose) polymerase” value (PC3-TxR cells; High dose PIP) was −2.6 and the “expression change of Thrombospondin 1” value (PC3-TxR cells; High dose PIP) was −2.4. For the same compound, the “expression change of Angiopoietin-like 4” value (PC3-TxR cells; Low dose PIP) was 2.3, the “expression change of CYP1B1” value (PC3-TxR cells; Low dose PIP) was −5.1 and the “expression change of Fatty acid binding protein 4, adipocyte” value (PC3-TxR cells; Low dose PIP) was 2.5. For the same compound, the “expression change of Keratin associated protein 2–3” value (PC3-TxR cells; Low dose PIP) was −3.3, the “expression change of Keratin associated protein 3–1” value (PC3-TxR cells; Low dose PIP) was −2.0 and the “expression change of Metastasis associated lung adenocarcinoma transcript 1 (non-protein coding)” value (PC3-TxR cells; Low dose PIP) was 3.0. For the same compound, the “expression change of O-linked N-acetylglucosamine (GlcNAc) transferase” value (PC3-TxR cells; Low dose PIP) was 2.0, the “expression change of Sodium channel, non-voltage-gated 1, gamma subunit” value (PC3-TxR cells; Low dose PIP) was 2.5 and the “expression change of TCDD-inducible poly(ADP-ribose) polymerase” value (PC3-TxR cells; Low dose PIP) was −2.8. The “expression change of Thrombospondin 1” value (PC3-TxR cells; Low dose PIP) was −2.2, the “enhancement of the sensitivity to doxorubicin” value (MCF-7/DOX) was 32 folds and the “intracellular DTX concentration in PC3-TxR cells” value (P-gp) was “increased to a level similar to that in the positive control”.

Reference: article PMC5790467, “Enhanced anti-tumor efficacy and mechanisms associated with docetaxel-piperine combination- in vitro and in vivo investigation using a taxane-resistant prostate cancer model” (Oncotarget, 2017)
